Results taken from paper PMC10439028, “SGLT5 is the renal transporter for 1,5-anhydroglucitol, a major player in two rare forms of neutropenia” (Cellular and Molecular Life Sciences: CMLS, 2023).

Molecular target: T1, mouse SGLT4 (Mus musculus, UniProt Q8VDT1)
T1 construct: expressed in transfected cells; host or cells: HEK293T
T1 sequence (Q8VDT1 1-685): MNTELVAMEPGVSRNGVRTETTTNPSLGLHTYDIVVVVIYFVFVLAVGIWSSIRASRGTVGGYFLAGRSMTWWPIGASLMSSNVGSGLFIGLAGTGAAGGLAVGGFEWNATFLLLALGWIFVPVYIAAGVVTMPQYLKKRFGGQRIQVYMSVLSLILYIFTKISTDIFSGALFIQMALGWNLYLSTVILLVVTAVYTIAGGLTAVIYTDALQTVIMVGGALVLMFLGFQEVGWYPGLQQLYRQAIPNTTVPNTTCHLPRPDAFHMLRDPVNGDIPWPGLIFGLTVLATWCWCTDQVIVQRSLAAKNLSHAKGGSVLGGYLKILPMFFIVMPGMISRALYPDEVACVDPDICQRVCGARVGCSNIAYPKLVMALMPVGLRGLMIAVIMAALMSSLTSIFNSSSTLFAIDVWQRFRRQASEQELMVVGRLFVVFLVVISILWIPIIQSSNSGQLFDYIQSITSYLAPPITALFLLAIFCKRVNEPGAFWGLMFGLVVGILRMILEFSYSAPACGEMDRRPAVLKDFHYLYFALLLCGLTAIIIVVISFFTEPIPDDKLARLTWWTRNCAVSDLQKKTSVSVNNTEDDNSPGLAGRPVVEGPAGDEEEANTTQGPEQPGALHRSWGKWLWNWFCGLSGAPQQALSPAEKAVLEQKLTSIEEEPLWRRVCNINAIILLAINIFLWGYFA
Test: Radioactive uptake assay (saturation kinetics) in HEK293T cells expressing mouse SGLT4
Type: cell-based
Method: For a typical transporter experiment we proceeded as follows. […] To minimize cell loss during the various washing steps in the radioactive uptake experiments, the wells where the cells were seeded were previously coated with poly- D-lysine, which improved their adhesion to the plastic surface of the wells. For this, each well of the 24-well plates was treated with 200 µl of a 0.01% poly-L-lysine solution for 10 min, washed 3 times with 1 ml of sterilized water and left to dry for 2 h. Only then could the 24-well plates be seeded with the appropriate cell lines and cultured overnight at 37 °C in 5% CO2.
On day two, the radioactive uptake assay could be performed. The cell culture media was removed by aspiration and cells were incubated for 20 min at 37 °C and 5% CO2 with a basal medium (10 mM HEPES, pH 7.4, 1 mM CaCl2, 1 mM MgCl2, 2 mM KCl) containing 140 mM choline chloride to deplete intracellular […] ions. This was subsequently replaced with the uptake medium (basal medium + 140 mM NaCl, 25 μM cytochalasin B, 1 mg/ml BSA) containing either radioactive U-[^14C]-mannose (15,000 cpm/well) or 2-[^3H]-1,5-AG (30,000 cpm/well) and respectively, non-radioactive mannose or 1,5-AG, at the required concentration in the experiment. Importantly, when measuring the transport of mannose, the uptake media also contained 0.5 mM glucose. This resulted from the need to reduce the background transport of mannose in control HEK293T cells in order to optimize the transport assay for this sugar in our model cell lines. Consequently, after testing various inhibitors (Supplementary Fig. 1), 0.5 mM glucose + 25 µM cytochalasin B appeared as the best combination to decrease efficiently the endogenous transport of mannose in control cells without affecting the transport of mannose in model cell lines overexpressing SGLT4 and SGLT5. […]
Once the uptake medium was added to the cells, the plates were incubated at 37 °C in 5% CO2 during the required time. […] In each experiment, the transport activities were calculated after subtracting a “blank” value, corresponding to the radioactivity in the appropriate control cells (HEK293T cells that were stably or transiently transfected with one of the parent plasmids pEF6/MycHisA, pEF6HisB, pUB82 or pUB83 with no inserted cDNA) that were analyzed in parallel. […]
Supplementary Fig. 4: Transport activities for 1,5-anhydroglucitol and mannose of recombinant mouse SGLT4 and SGLT5 isoforms measured in HEK293T cells.
Transport was measured in 24 well plates with 0.6x10^6 cells during 30 mins at 37°C in 5% CO2 in the presence of the indicated concentrations of 2-[1H+3H]-1,5-AG for both mSGLT4 (A) and mSGLT5 (B) and U-[12C+14C]-mannose (C) for mSGLT4. […]

| Compound | mSGLT4 Vmax (30 min, Supplementary Fig. 4) [pmol/min/100 000 cells] | Km (30 min, Supplementary Fig. 4, read-out: mSGLT4 Km) [mM] | Km of mouse SGLT4 lower for mannose than for 1,5-AG (mannose versus 1,5-AG) [fold] |
| --- | --- | --- | --- |
| OC[C@H]1OC[C@H](O)[C@@H](O)[C@@H]1O [1,5-AG, 1,5-anhydroglucitol] | 152 | > 5 | – |
| OC[C@H]1OC(O)[C@@H](O)[C@@H](O)[C@@H]1O (stereo partly shown) [Mannose, mannose] | 29 | – | 25 |
